Experimental findings from patent US9718785B2, “1,3-Disubstituted cyclopentane derivatives” (MERCK PATENT GMBH, priority 2013, dated 2017) are described below.

pIC50: −log10 of the molar value. Where only a bound is given, the exact number is not on record here.

The target in the assay is T1, human recombinant full-length fatty acid synthase (FASN) (Homo sapiens, UniProt P49327).
T1 construct: 40 nM human recombinant full-length fatty acid synthase (produced in-house in SF9 cells); made in house; host or cells: SF9 insect cells
T1 sequence (P49327 whole entry): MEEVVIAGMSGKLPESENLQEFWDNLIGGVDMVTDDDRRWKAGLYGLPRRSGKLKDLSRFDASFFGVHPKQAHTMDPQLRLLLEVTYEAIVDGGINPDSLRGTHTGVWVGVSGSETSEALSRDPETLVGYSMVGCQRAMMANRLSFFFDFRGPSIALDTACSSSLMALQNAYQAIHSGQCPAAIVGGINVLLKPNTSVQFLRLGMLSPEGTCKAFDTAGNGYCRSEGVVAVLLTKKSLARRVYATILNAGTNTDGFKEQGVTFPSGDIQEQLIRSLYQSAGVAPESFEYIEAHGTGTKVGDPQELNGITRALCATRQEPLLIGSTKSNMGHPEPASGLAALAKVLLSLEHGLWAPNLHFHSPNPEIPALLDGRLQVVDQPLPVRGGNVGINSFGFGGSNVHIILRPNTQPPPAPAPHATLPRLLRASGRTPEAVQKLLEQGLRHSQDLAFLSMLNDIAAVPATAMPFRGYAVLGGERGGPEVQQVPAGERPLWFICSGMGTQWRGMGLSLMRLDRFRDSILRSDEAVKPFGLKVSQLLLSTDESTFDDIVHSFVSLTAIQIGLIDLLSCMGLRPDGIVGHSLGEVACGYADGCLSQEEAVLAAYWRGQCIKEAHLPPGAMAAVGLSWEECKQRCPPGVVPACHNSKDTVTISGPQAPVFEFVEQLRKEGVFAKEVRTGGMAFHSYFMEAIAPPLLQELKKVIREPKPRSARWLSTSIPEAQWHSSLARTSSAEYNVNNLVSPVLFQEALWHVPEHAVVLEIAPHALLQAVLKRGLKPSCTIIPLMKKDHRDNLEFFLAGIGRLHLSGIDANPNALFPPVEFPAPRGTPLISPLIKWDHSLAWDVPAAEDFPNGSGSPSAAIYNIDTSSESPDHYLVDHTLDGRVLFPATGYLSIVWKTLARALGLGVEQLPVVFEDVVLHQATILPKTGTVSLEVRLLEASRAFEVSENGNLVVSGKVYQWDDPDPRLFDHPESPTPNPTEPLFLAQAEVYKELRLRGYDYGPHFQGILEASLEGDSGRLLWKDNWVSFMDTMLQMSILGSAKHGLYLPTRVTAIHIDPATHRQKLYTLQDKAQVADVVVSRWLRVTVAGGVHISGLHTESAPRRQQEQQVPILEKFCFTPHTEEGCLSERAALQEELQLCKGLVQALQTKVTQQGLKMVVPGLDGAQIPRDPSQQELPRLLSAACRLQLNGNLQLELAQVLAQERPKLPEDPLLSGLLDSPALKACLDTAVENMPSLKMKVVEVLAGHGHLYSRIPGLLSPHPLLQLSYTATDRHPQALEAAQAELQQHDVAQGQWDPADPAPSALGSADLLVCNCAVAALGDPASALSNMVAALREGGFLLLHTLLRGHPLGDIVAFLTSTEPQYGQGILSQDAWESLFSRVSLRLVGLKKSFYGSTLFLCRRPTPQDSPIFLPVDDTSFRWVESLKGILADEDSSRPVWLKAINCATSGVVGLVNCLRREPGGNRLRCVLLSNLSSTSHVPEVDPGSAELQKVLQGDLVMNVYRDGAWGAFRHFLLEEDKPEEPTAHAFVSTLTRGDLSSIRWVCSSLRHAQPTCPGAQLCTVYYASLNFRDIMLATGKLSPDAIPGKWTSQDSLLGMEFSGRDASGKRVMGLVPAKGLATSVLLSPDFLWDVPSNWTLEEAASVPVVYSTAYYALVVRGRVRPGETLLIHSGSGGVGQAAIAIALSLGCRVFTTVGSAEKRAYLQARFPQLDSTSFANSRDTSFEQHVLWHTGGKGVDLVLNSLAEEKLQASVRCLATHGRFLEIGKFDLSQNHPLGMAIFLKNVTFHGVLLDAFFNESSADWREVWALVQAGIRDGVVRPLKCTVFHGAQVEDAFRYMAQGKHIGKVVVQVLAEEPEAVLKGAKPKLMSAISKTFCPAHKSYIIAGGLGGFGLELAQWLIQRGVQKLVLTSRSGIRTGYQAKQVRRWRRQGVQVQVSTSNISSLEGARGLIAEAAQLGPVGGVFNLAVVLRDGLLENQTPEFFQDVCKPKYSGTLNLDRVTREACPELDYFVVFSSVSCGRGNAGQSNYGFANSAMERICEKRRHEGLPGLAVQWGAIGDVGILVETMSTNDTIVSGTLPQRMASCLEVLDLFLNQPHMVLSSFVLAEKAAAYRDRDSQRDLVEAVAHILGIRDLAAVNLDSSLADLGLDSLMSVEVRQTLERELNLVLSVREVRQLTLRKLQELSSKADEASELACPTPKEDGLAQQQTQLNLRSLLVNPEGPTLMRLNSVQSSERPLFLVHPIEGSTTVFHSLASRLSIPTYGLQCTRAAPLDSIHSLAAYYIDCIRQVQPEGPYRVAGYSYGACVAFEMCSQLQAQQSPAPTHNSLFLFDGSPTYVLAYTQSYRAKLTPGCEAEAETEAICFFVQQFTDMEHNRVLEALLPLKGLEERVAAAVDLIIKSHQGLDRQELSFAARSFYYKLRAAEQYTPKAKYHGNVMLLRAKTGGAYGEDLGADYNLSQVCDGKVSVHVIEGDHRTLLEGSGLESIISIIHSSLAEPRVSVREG
Briefly: Biochemical activity testing of human fatty acid synthase FASN (NADPH fluorescence intensity enzyme assay). To be noted: human recombinant FASN, enzyme assay. From the text:
Biochemical Activity Testing of Human Fatty Acid Synthase FASN
Fatty acid synthase FASN is a multifunctional enzyme with seven catalytic activities thereby synthesising long chain fatty acids especially palmitoyl-CoA in the presence of co-factor NADPH starting from the substrates acetyl-CoA and malonyl-CoA. The reductive synthesis is realized by the oxidation of NADPH to NADP. Since NADPH has a high fluorescence intensity quantum yield compared to NADP with excitation at 340 nm and emission at 460 nm, the reaction can be monitored via the decrease in fluorescence intensity. The biochemical FASN activity testing was performed as 384 well two-time-point kinetic fluorescence intensity assay format in Greiner low volume medium binding 384-well black microtiter plates in a total assay volume of 8 μl and was used for high throughput screen. In each well 3 μl 40 nM human recombinant full-length fatty acid synthase (produced in-house in SF9 cells) were dispensed in the following assay buffer: 50 mM potassium phosphate buffer pH 7.0, 0.005% (w/v) BSA, 2 mM Glutathione, 0.02% Tween-20. Then 2 μl of 200 μM NADPH in assay buffer were added, followed by the addition of the test compounds in 10 dilution concentrations starting with 30 μM (final concentration) to get a final DMSO content of 1% (v/v). The mixture was incubated for at least 15 min at room temperature. After the pre-incubation the enzymatic reaction was started by the addition of 2 μl substrate solution (80 μM acetyl-CoA, 240 μM malonyl-CoA). A first fluorescence intensity measurement (time point one) was performed with an Envision multimode reader (Perkin Elmer LAS Germany GmbH) at excitation wavelength 340 nm (lamp mode) and emission wavelength 460 nm. The reaction was incubated for 30 minutes at room temperature. After this the fluorescence intensity was measured again in the Envision using the same parameters as described above (second time point measurement). The data were analysed by subtracting the first time point measurement value from the second time point measurement value (after the enzymatic reaction). The differences of the emission signals were determined. These reflect directly the conversion rate of NADPH. The full value used was the inhibitor-free reaction. A pharmacological zero value was used like GSK837149A (Sigma-Aldrich) in a final concentration of 5-10 μM. The inhibitory values (IC50) were determined using either the program Symyx Assay Explorer® or Condosseo® from GeneData.
`CCC(=O)N[C@H]1CC[C@@H](n2nncc2-c2ccc(-c3ccc4[nH]cnc4c3)cc2)C1` [Compound A73, N-((1S,3R)-3-{5-[4-(1H-Benzimidazol-5-yl)-phenyl]-[1,2,3]triazol-1-yl}-cyclopentyl)-propionamide]: the negative logarithm of the IC50 (pIC50) is above 6.52.

On to `CCC(=O)N[C@H]1CC[C@@H](n2nncc2-c2ccc(-c3ccc4[nH]ncc4c3)cc2)C1` [Compound A74, N-((1S,3R)-3-{5-[4-(1H-Indazol-5-yl)-phenyl]-[1,2,3]triazol-1-yl}-cyclopentyl)-propionamide], for which the pIC50 was above 6.52.

As for `CCC(=O)N[C@H]1CC[C@@H](n2nncc2-c2ccc(-c3ccc(Cl)c(F)c3)cc2)C1` [Compound A75, N-{(1S,3R)-3-[5-(4′-Chloro-3′-fluoro-biphenyl-4-yl)-[1,2,3]triazol-1-yl]-cyclopentyl}-propionamide], the pIC50 is above 6.52.

In the case of `CCC(=O)N[C@H]1CC[C@@H](n2nncc2-c2ccc(-c3ccc(-n4cccn4)cc3)cc2)C1` [Compound A76, N-{(1S,3R)-3-[5-(4′-Pyrazol-1-yl-biphenyl-4-yl)-[1,2,3]triazol-1-yl]-cyclopentyl}-propionamide], the negative-log IC50 (pIC50) was above 6.52.

Take `CCC(=O)N[C@H]1CC[C@@H](n2nncc2-c2ccc(-c3ccc4c(c3)N(C)C(=O)C4)cc2)C1` [Compound A77, N-((1S,3R)-3-{5-[4-(1-Methyl-2-oxo-2,3-dihydro-1H-indol-6-yl)-phenyl]-[1,2,3]triazol-1-yl}-cyclopentyl)-propionamide]: the negative logarithm of the IC50 (pIC50) is above 6.52.

With `CCC(=O)N[C@H]1CC[C@@H](n2nncc2-c2ccc(-c3cc4cn[nH]c4cc3C)cc2)C1` [Compound A78, N-((1S,3R)-3-{5-[4-(6-Methyl-1H-indazol-5-yl)-phenyl]-[1,2,3]triazol-1-yl}-cyclopentyl)-propionamide], the negative-log IC50 (pIC50) is above 6.52.

`CCC(=O)N[C@H]1CC[C@@H](n2nncc2-c2ccc(-c3ccc4c(c3)CC(=O)N4)cc2)C1` [Compound A79, N-((1S,3R)-3-{5-[4-(2-Oxo-2,3-dihydro-1H-indol-5-yl)-phenyl]-[1,2,3]triazol-1-yl}-cyclopentyl)-propionamide]: the pIC50 is above 6.52.

As to `CCC(=O)N[C@H]1CC[C@@H](n2nncc2-c2ccc(-c3ccc(C#N)c(F)c3)cc2)C1` [Compound A80, N-{(1S,3R)-3-[5-(4′-Cyano-3′-fluoro-biphenyl-4-yl)-[1,2,3]triazol-1-yl]-cyclopentyl}-propionamide], the negative-log IC50 (pIC50) was above 6.52.

In the case of `CCC(=O)N[C@H]1CC[C@@H](n2nncc2-c2ccc(-c3ccc(Cl)cc3F)cc2)C1` [Compound A81, N-{(1S,3R)-3-[5-(4′-Chloro-2′-fluoro-biphenyl-4-yl)-[1,2,3]triazol-1-yl]-cyclopentyl}-propionamide], the negative logarithm of the IC50 (pIC50) was above 6.52.

For `CCC(=O)N[C@H]1CC[C@@H](n2nncc2-c2ccc(-c3ccc(OC)cc3C)cc2)C1` [Compound A82, N-{(1S,3R)-3-[5-(4′-Methoxy-2′-methyl-biphenyl-4-yl)-[1,2,3]triazol-1-yl]-cyclopentyl}-propionamide], the pIC50 is above 6.52.

As to `CCC(=O)N[C@H]1CC[C@@H](n2nncc2-c2ccc(-c3ccc(C)c(F)c3)cc2)C1` [Compound A83, N-{(1S,3R)-3-[5-(3′-Fluoro-4′-methyl-biphenyl-4-yl)-[1,2,3]triazol-1-yl]-cyclopentyl}-propionamide], the pIC50 was above 6.52.

Regarding `CCC(=O)N[C@H]1CC[C@@H](n2nncc2-c2ccc(-c3ccc(C)cc3)cc2)C1` [Compound A84, N-{(1S,3R)-3-[5-(4′-Methyl-biphenyl-4-yl)-[1,2,3]triazol-1-yl]-cyclopentyl}-propionamide], the pIC50 was above 6.52.

As for `CCC(=O)N[C@H]1CC[C@@H](n2nncc2-c2ccc(-c3ccc(F)c(Cl)c3)cc2)C1` [Compound A85, N-{(1S,3R)-3-[5-(3′-Chloro-4′-fluoro-biphenyl-4-yl)-[1,2,3]triazol-1-yl]-cyclopentyl}-propionamide], the pIC50 was above 6.52.

Consider `CCC(=O)N[C@H]1CC[C@@H](n2nncc2-c2ccc(-c3ccc(OC)cc3OC)cc2)C1` [Compound A86, N-{(1S,3R)-3-[5-(2′,4′-Dimethoxy-biphenyl-4-yl)-[1,2,3]triazol-1-yl]-cyclopentyl}-propionamide], for which the pIC50 was above 6.52.

For the compound `CCC(=O)N[C@H]1CC[C@@H](n2nncc2-c2ccc(-c3ccc4[nH]c(=O)[nH]c4c3)cc2)C1` [Compound A87, N-((1S,3R)-3-{5-[4-(2-Oxo-2,3-dihydro-1H-benzimidazol-5-yl)-phenyl]-[1,2,3]triazol-1-yl}-cyclopentyl)-propionamide], the pIC50 was above 6.52.

As for `CCC(=O)N[C@H]1CC[C@@H](n2nncc2-c2ccc(-c3ccc(OC)c(OC)c3)cc2)C1` [Compound A88, N-{(1S,3R)-3-[5-(3′,4′-Dimethoxy-biphenyl-4-yl)-[1,2,3]triazol-1-yl]-cyclopentyl}-propionamide], the pIC50 was above 6.52.

In the case of `CCC(=O)N[C@H]1CC[C@@H](n2nncc2-c2ccc(-c3ccc(C)cc3C)cc2)C1` [Compound A89, N-{(1S,3R)-3-[5-(2′,4′-Dimethyl-biphenyl-4-yl)-[1,2,3]triazol-1-yl]-cyclopentyl}-propionamide], the pIC50 was above 6.52.

In the case of `CC1(C)OC[C@@H](C(=O)N[C@H]2CC[C@@H](n3nncc3-c3ccc(-c4nc5ccccc5o4)cc3)C2)O1` [Compound A90, (S)-2,2-Dimethyl-[1,3]dioxolane-4-carboxylic acid {(1S,3R)-3-[5-(4-benzoxazol-2-yl-phenyl)-[1,2,3]triazol-1-yl]-cyclopentyl}-amide], the negative logarithm of the IC50 (pIC50) is above 6.52.

Regarding `CCC(=O)N[C@H]1CC[C@@H](n2nncc2-c2ccc(-c3ccc4c(c3)NC(=O)C4)cc2)C1` [Compound A91, N-((1S,3R)-3-{5-[4-(2-Oxo-2,3-dihydro-1H-indol-6-yl)-phenyl]-[1,2,3]triazol-1-yl}-cyclopentyl)-propionamide], the pIC50 was above 6.52.

Turning to `CCC(=O)N[C@H]1CC[C@@H](n2nncc2-c2ccc(-c3ccc(OCC4CC4)cc3)cc2)C1` [Compound A92, N-{(1S,3R)-3-[5-(4′-Cyclopropylmethoxy-biphenyl-4-yl)-[1,2,3]triazol-1-yl]-cyclopentyl}-propionamide], the negative-log IC50 (pIC50) is above 6.52.

As to `O=C(N[C@H]1CC[C@@H](n2nncc2-c2ccc(-c3nc4ccccc4o3)cc2)C1)[C@@H](O)CO` [Compound A93, (S)—N-{(1S,3R)-3-[5-(4-Benzoxazol-2-yl-phenyl)-[1,2,3]triazol-1-yl]-cyclopentyl}-2,3-dihydroxy-propionamide], the negative logarithm of the IC50 (pIC50) was 5.52 to 6.52.

`CCC(=O)N[C@H]1CC[C@@H](n2cnnc2-c2ccc(-c3ccc(OC)cc3C)cc2)C1` [Compound A94, N-{(1S,3R)-3-[3-(4′-Methoxy-2′-methyl-biphenyl-4-yl)-[1,2,4]triazol-4-yl]-cyclopentyl}-propionamide]: the pIC50 was above 6.52.

Take `CCC(=O)N[C@H]1CC[C@@H](n2cnnc2-c2ccc(-c3ccc(Cl)c(F)c3)cc2)C1` [Compound A95, N-{(1S,3R)-3-[3-(4′-Chloro-3′-fluoro-biphenyl-4-yl)[1,2,4]triazol-4-yl]-cyclopentyl}-propionamide]: the negative logarithm of the IC50 (pIC50) was above 6.52.

Turning to `CCC(=O)N[C@H]1CC[C@@H](n2cnnc2-c2ccc(-c3ccc(-n4cccn4)cc3)cc2)C1` [Compound A96, N-{(1S,3R)-3-[3-(4′-Pyrazol-1-yl-biphenyl-4-yl)[1,2,4]triazol-4-yl]-cyclopentyl}-propionamide], the pIC50 is above 6.52.
